From patent US10696634B2, “Pyridine compounds as fungicides” (BASF SE, priority 2015, dated 2020)

How the values were obtained:
Leptosphaeria nodorum = experiment: Microtiterplate test against wheat leaf spots caused by Leptosphaeria nodorum; format: cell-based; conditions: comparative example, 405 nm 9 days after inoculation
Botrytis cinerea = experiment: Microtiterplate test against grey mold Botrytis cinerea; format: cell-based; conditions: comparative example, 405 nm 9 days after inoculation

Row | Structure (SMILES) | Growth (%) at 31 ppm (Leptosphaeria nodorum) | Growth (%) at 31 ppm (Botrytis cinerea)
1 | CCOC(C)c1c(F)cccc1Oc1cnc(C)c(C)c1 (stereo not shown) [Example I-16] | 40% | 34%
2 | COC(C)c1c(F)cccc1Oc1cnc(C)c(C)c1 (stereo not shown) [State of the art] | 68% | 58%
